Laboratory results reported in the supplement of paper PMC10627819.
≈ marks a conversion by molar mass, not a printed value.

Assays:
[1] = system: S. aureus Newman; test: fitness (endpoint OD595 vs no drug) (fraction); higher = more growth
Outline: (§1)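 With the first reading as background, OD595 was measured every 30 min for 14 h in 384-well plates kept at 37 °C and inoculated at OD595 0.01. TSB, LB Lennox or CY was the medium. Fitness is the optical density at the transition into stationary phase divided by the robust mean of no-drug control wells, with a cap of 1.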

[2] = system: S. aureus DSM 20231; test: as above
Outline: as §1

[3] = system: B. subtilis 168; test: as above
Outline: as §1

[4] = system: S. pneumoniae D39V; test: as above
Outline: as §1

[5] = system: S. aureus Newman; test: Bliss interaction score (quartile over a dose matrix) (fitness difference); higher = more antagonism (negative = synergy)
Outline: (§2)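 Quartiles summarise the Bliss score over technical, biological and donor/recipient replicates, where the score is observed minus expected fitness under a product model. Expected fitness uses single-drug values inferred from combination data. Fitness is OD595 at entry into stationary phase over the plate's robust no-drug mean, capped at 1.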

[6] = system: S. aureus DSM 20231; test: as above
Outline: as §2

[7] = system: B. subtilis 168; test: as above
Outline: as §2

[8] = system: S. pneumoniae D39V; test: as above
Outline: as §2

[9] = system: S. aureus Newman
[10] = system: S. aureus DSM 20231
[11] = system: B. subtilis 168
[12] = system: S. pneumoniae D39V
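For Bliss interaction score (quartile over a dose matrix) in this document: first quartile when negative (synergy) and third quartile when positive (antagonism).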

Cn1c2cccc(=O)c-2nc2ccccc21 [Pyocyanin] + CN(N=O)C(=O)N[C@@H](C=O)[C@@H](O)[C@H](O)[C@H](O)CO [Streptozotocin]
fitness
Conditions	partner 0.15 µg/mL	partner 0.3 µg/mL	partner 0.6 µg/mL	partner 1.2 µg/mL	partner 2.4 µg/mL	partner 4.8 µg/mL
[1], first compound 1.25 µg/mL	0.788	0.633	0.494	–	–	–
[1], first compound 2.5 µg/mL	0.695	0.591	0.385	–	–	–
[1], first compound 5 µg/mL	0.265	0.249	0.167	–	–	–
[2], first compound 1.25 µg/mL	0.836	0.852	0.711	–	–	–
[2], first compound 2.5 µg/mL	0.803	0.772	0.676	–	–	–
[2], first compound 5 µg/mL	0.626	0.617	0.517	–	–	–
[4], first compound 0.325 µg/mL	–	–	–	0.951	0.912	0.928
[4], first compound 0.65 µg/mL	–	–	–	0.973	0.964	0.965

fitness, one replicate
Conditions	partner 0.15 µg/mL	partner 0.3 µg/mL	partner 0.6 µg/mL	partner 1.2 µg/mL	partner 2.4 µg/mL	partner 4.8 µg/mL
[3], first compound 1.25 µg/mL	0.99	0.918	0.96	–	–	–
[3], first compound 2.5 µg/mL	0.777	0.903	0.873	–	–	–
[3], first compound 5 µg/mL	0.687	0.729	0.777	–	–	–
[4], first compound 1.3 µg/mL	–	–	–	0.626	0.683	0.783

Conditions	Bliss interaction score
[5]	-0.0417
[6]	0.0692
[7]	-0.0597
[8]	-0.0715

Cn1c2cccc(=O)c-2nc2ccccc21 [Pyocyanin] + CN[C@@H]1[C@H](O)[C@H](NC)[C@H]2O[C@@]3(O)C(=O)C[C@@H](C)O[C@H]3O[C@@H]2[C@H]1O [Spectinomycin]
fitness
Conditions	partner 2 µg/mL	partner 4 µg/mL	partner 8 µg/mL	partner 16 µg/mL
[1], first compound 1.25 µg/mL	–	0.853	0.867	0.853
[1], first compound 2.5 µg/mL	–	0.761	0.766	0.697
[2], first compound 1.25 µg/mL	–	0.884	0.93	0.82
[2], first compound 2.5 µg/mL	–	0.868	0.86	0.716
[2], first compound 5 µg/mL	–	0.688	0.726	0.582
[3], first compound 1.25 µg/mL	0.907	0.914	0.861	–
[3], first compound 2.5 µg/mL	0.887	0.876	0.857	–
[3], first compound 5 µg/mL	0.762	0.757	0.708	–
[4], first compound 0.325 µg/mL	–	0.995	0.955	–
[4], first compound 0.65 µg/mL	–	0.96	0.944	–

fitness, one replicate
Conditions	[1]	[2]	[4]
first compound 0.325 µg/mL, partner 16 µg/mL	–	–	0.729
first compound 0.65 µg/mL, partner 16 µg/mL	–	–	0.885
first compound 1.25 µg/mL, partner 32 µg/mL	0.591	0.656	–
first compound 1.25 µg/mL, partner 64 µg/mL	0.11	0.0503	–
first compound 1.3 µg/mL, partner 4 µg/mL	–	–	0.776
first compound 1.3 µg/mL, partner 8 µg/mL	–	–	0.792
first compound 2.5 µg/mL, partner 32 µg/mL	0.489	0.638	–
first compound 2.5 µg/mL, partner 64 µg/mL	0.0964	0.0416	–
first compound 5 µg/mL, partner 32 µg/mL	0.268	0.342	–
first compound 5 µg/mL, partner 64 µg/mL	0.0535	0.0295	–

Conditions	Bliss interaction score
[5]	0.0628
[6]	-0.0492
[7]	-0.0432
[8]	0.0496

Cn1c2cccc(=O)c-2nc2ccccc21 [Pyocyanin] + Cc1cc(NS(=O)(=O)c2ccc(N)cc2)no1 [Sulfamethoxazol]
one replicate
Conditions	fitness
[1], first compound 1.25 µg/mL, partner 8 µg/mL	0.911
[1], first compound 2.5 µg/mL, partner 8 µg/mL	0.858
[1], first compound 5 µg/mL, partner 8 µg/mL	0.778
[3], first compound 1.25 µg/mL, partner 0.5 µg/mL	0.915
[3], first compound 2.5 µg/mL, partner 0.5 µg/mL	0.884
[3], first compound 5 µg/mL, partner 0.5 µg/mL	0.632
[4], first compound 1.3 µg/mL, partner 1 µg/mL	0.637
[4], first compound 1.3 µg/mL, partner 2 µg/mL	0.679
[4], first compound 1.3 µg/mL, partner 4 µg/mL	0.615

fitness
Conditions	partner 1 µg/mL	partner 2 µg/mL	partner 4 µg/mL
[2], first compound 1.25 µg/mL	0.929	0.939	0.925
[2], first compound 2.5 µg/mL	0.831	0.903	0.893
[2], first compound 5 µg/mL	0.641	0.674	0.689
[3], first compound 1.25 µg/mL	0.869	0.862	0.877
[3], first compound 2.5 µg/mL	0.852	0.738	0.868
[3], first compound 5 µg/mL	0.669	0.685	0.774
[4], first compound 0.325 µg/mL	0.983	≥ 1	0.96
[4], first compound 0.65 µg/mL	0.936	0.975	0.933

Conditions	Bliss interaction score
[5]	-0.0714
[6]	0.0564
[7]	-0.063
[8]	-0.0551

CN(N=O)C(=O)N[C@@H](C=O)[C@@H](O)[C@H](O)[C@H](O)CO [Streptozotocin]
fitness
Conditions	0.15 µg/mL	0.3 µg/mL	0.6 µg/mL	1.2 µg/mL	2.4 µg/mL	4.8 µg/mL
[1]	0.852	0.735	0.524	–	–	–
[2]	0.891	0.843	0.756	–	–	–
[3]	0.987	0.961	0.99	–	–	–
[4]	–	–	–	0.96	0.936	0.975

Conditions	MIC [µg/mL]
[9]	0.8 (≈ 3.02 µM)
[10]	0.8 (≈ 3.02 µM)
[11]	0.7 (≈ 2.64 µM)
[12]	5 (≈ 18.9 µM)
